Measured values from patent publication US20230382949A1 (HEPTARES THERAPEUTICS LIMITED, priority 2020, published 2023).
Read-outs that look alike come from different tables or passages of the source. Starred links: 1 amine or outer side, 2 acyl side, 3 side chain; linkers in the order of their positions; H or OH if unused. Non-standard residues stand in square brackets, D forms with d. Residues, ends and D or L forms follow the SMILES beside them. *: point of attachment. Ala(piperidin-4-yl) = O=C([C@H](CC1CCN([*:3])CC1)N[*:1])[*:2]; Malonyl(2,2-Me2,histaminyl) = CC(C)(C(=O)NCCc1cnc[nH]1)C(=O)*; Bip = N[C@@H](Cc1ccc(-c2ccccc2)cc1)C(=O)O; dBip = N[C@H](Cc1ccc(-c2ccccc2)cc1)C(=O)O; Oic = O=C(O)[C@@H]1C[C@@H]2CCCC[C@@H]2N1; Phe(3-Cl) = N[C@@H](Cc1cccc(Cl)c1)C(=O)O; Phe(4-Br) = N[C@@H](Cc1ccc(Br)cc1)C(=O)O; Phe(4-Cl) = N[C@@H](Cc1ccc(Cl)cc1)C(=O)O; 2Nal = N[C@@H](Cc1ccc2ccccc2c1)C(=O)O; d2Nal = N[C@H](Cc1ccc2ccccc2c1)C(=O)O; hArg = N=C(N)NCCCC[C@H](N)C(=O)O; tBuAla = CC(C)(C)C[C@H](N)C(=O)O; 3Pal = N[C@@H](Cc1cccnc1)C(=O)O; Cba = N[C@@H](CC1CCC1)C(=O)O; Pip = O=C(O)[C@@H]1CCCCN1; Aib = CC(C)(N)C(=O)O; Bn = c1ccc(C*)cc1

Legend:
human Apelin receptor [1] = biological target: T1, human Apelin receptor (Homo sapiens, UniProt P35414); assay: cAMP accumulation assay (HTRF), functional agonism of human Apelin receptors; format: cell-based; settings: for Emax: CHO
T1 sequence (P35414 1-380): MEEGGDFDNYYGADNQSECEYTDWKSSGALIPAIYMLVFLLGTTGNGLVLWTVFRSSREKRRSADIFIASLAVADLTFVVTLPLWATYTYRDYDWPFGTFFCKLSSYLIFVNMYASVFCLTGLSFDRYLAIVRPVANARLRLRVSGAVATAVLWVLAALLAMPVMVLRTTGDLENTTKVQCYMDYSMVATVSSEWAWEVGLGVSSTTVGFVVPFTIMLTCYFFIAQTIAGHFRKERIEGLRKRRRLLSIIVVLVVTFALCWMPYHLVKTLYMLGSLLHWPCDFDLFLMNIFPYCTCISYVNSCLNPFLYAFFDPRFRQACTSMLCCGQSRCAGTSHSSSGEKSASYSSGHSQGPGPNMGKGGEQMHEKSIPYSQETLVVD
Description: cAMP functional assay. cAMP production was quantified using the Homogeneous Time-Resolved Fluorescence (HTRF) cAMP dynamic-2 assay (Cisbio, France).

human Apelin receptor [2] = biological target: T2, human Apelin receptor (Homo sapiens, UniProt P35414); assay: β-arrestin accumulation assay, functional agonism of human Apelin receptors; format: cell-based
T2 construct: host or cells: CHO-K1 cells
Method: β-arrestin assay. […] After 16 h incubation at 37° C. media was removed and cells were incubated at 37° C. for 90 min in serum free media containing increasing concentrations of test agonist. The assay reaction was stopped by adding detection reagent (DiscoveRx) and incubation for 60 min in the dark. Levels of receptor activation were then measured on a PheraStar fluorescence plate reader (BMG LabTech) and EC50 values were determined using Graphpad Prism.
T2 sequence (P32121 whole entry partner, one chain of several): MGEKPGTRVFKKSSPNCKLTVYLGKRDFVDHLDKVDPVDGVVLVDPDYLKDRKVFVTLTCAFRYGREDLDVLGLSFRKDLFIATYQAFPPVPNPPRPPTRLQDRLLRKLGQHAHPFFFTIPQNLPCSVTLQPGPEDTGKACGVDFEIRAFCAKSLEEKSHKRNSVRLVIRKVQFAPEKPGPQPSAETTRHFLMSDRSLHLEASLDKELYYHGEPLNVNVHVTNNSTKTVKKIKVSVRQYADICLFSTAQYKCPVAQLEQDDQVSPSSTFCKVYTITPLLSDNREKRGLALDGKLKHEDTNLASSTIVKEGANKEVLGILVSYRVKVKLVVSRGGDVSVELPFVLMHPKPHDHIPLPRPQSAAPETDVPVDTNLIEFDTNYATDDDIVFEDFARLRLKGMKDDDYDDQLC

[3] = Human Apelin agonist cAMP assay, CHO cells stably expressing the human Apelin receptor, 3 uM forskolin
[4] = pEC50, Human Apelin agonist cAMP assay, CHO cells stably expressing the human Apelin receptor, 3 uM forskolin

| Emax (human Apelin receptor [1]; read-out: Emax) [%] | EC50 (human Apelin receptor [1]; read-out: pEC50 (converted)) [µM] | SMILES | Emax (human Apelin receptor [1]; [3]) [%] | EC50 (human Apelin receptor [1]; [4]) [µM] | EC50 (human Apelin receptor [2]) [µM] |
| --- | --- | --- | --- | --- | --- |
| – | – | CC(C)(C)C[C@H](NC(=O)[C@@H](CCCNC(=N)N)NC(=O)[C@@H]1CCCN1C(=O)[C@H](CCCCNC(=N)N)NC(=O)[C@H](CCC(N)=O)NC(=O)[C@@H](CCCNC(=N)N)NC(=O)C(C)(C)C(=O)NCCc1c[nH]cn1)C(=O)NC(C)(C)C(=O)N[C@@H](Cc1c[nH]cn1)C(=O)N[C@@H](CC1CCNCC1)C(=O)NCC(=O)N1[C@H](C(=O)N[C@@H](Cc2ccc(Br)cc2)C(=O)N2CCC[C@H]2C(=O)N[C@H](Cc2ccc(-c3ccccc3)cc2)C(=O)O)C[C@@H]2CCCC[C@@H]21 [Example 13] ({Malonyl(2,2-Me2,histaminyl)}-[dR]Q[hArg]P[dR][tBuAla][Aib]H[Ala(piperidin-4-yl)]G[Oic][Phe(4-Br)]P[dBip]-OH) | 72.9 | 0.0251 | > 10 |
| – | – | CC(C)(NC(=O)[C@H](CC1CCC1)NC(=O)[C@@H](CCCNC(=N)N)NC(=O)[C@@H]1CCCN1C(=O)[C@H](CCCCNC(=N)N)NC(=O)[C@H](CCC(N)=O)NC(=O)[C@@H](CCCNC(=N)N)NC(=O)C(C)(C)C(=O)NCCc1c[nH]cn1)C(=O)N[C@@H](Cc1c[nH]cn1)C(=O)N[C@@H](CC1CCNCC1)C(=O)NCC(=O)N1[C@H](C(=O)N[C@@H](Cc2ccc(Br)cc2)C(=O)N2CCC[C@H]2C(=O)N[C@H](Cc2ccc(-c3ccccc3)cc2)C(=O)O)C[C@@H]2CCCC[C@@H]21 [Example 14] ({Malonyl(2,2-Me2,histaminyl)}-[dR]Q[hArg]P[dR][Cba][Aib]H[Ala(piperidin-4-yl)]G[Oic][Phe(4-Br)]P[dBip]-OH) | 77 | 0.00794 | > 10 |
| – | – | CC(C)C[C@H](NC(=O)[C@@H](CCCNC(=N)N)NC(=O)[C@@H]1CCCN1C(=O)[C@H](CCCCNC(=N)N)NC(=O)[C@H](CCC(N)=O)NC(=O)[C@@H](CCCNC(=N)N)NC(=O)C(C)(C)C(=O)NCCc1c[nH]cn1)C(=O)NC(C)(C)C(=O)N[C@@H](Cc1cccnc1)C(=O)N[C@@H](CC1CCNCC1)C(=O)NCC(=O)N1[C@H](C(=O)N[C@@H](Cc2ccc(Br)cc2)C(=O)N2CCC[C@H]2C(=O)N[C@H](Cc2ccc(-c3ccccc3)cc2)C(=O)O)C[C@@H]2CCCC[C@@H]21 [Example 15] ({Malonyl(2,2-Me2,histaminyl)}-[dR]Q[hArg]P[dR]L[Aib][3Pal][Ala(piperidin-4-yl)]G[Oic][Phe(4-Br)]P[dBip]-OH) | 86.4 | 0.00794 | > 10 |
| – | – | CC(C)C[C@H](NC(=O)[C@@H](CCCNC(=N)N)NC(=O)[C@@H]1CCCN1C(=O)[C@H](CCCCNC(=N)N)NC(=O)[C@H](CCC(N)=O)NC(=O)[C@@H](CCCNC(=N)N)NC(=O)C(C)(C)C(=O)NCCc1c[nH]cn1)C(=O)NC(C)(C)C(=O)N[C@@H](Cc1c[nH]cn1)C(=O)N[C@@H](CC1CCNCC1)C(=O)N[C@@H](C)C(=O)N1[C@H](C(=O)N[C@@H](Cc2ccc(Br)cc2)C(=O)N2CCC[C@H]2C(=O)N[C@H](Cc2ccc(-c3ccccc3)cc2)C(=O)O)C[C@@H]2CCCC[C@@H]21 [Example 16] ({Malonyl(2,2-Me2,histaminyl)}-[dR]Q[hArg]P[dR]L[Aib]H[Ala(piperidin-4-yl)]A[Oic][Phe(4-Br)]P[dBip]-OH) | 64.8 | 0.00501 | > 1 |
| – | – | CC(C)C[C@H](NC(=O)[C@@H](CCCNC(=N)N)NC(=O)[C@@H]1CCCN1C(=O)[C@H](CCCCNC(=N)N)NC(=O)[C@H](CCC(N)=O)NC(=O)[C@@H](CCCNC(=N)N)NC(=O)C(C)(C)C(=O)NCCc1c[nH]cn1)C(=O)NC(C)(C)C(=O)N[C@@H](Cc1c[nH]cn1)C(=O)N[C@@H](CC1CCNCC1)C(=O)NCC(=O)N1[C@H](C(=O)N[C@@H](Cc2ccc(Cl)cc2)C(=O)N2CCC[C@H]2C(=O)N[C@H](Cc2ccc(-c3ccccc3)cc2)C(=O)O)C[C@@H]2CCCC[C@@H]21 [Example 17] ({Malonyl(2,2-Me2,histaminyl)}-[dR]Q[hArg]P[dR]L[Aib]H[Ala(piperidin-4-yl)]G[Oic][Phe(4-Cl)]P[dBip]-OH) | 78.8 | 0.0251 | > 10 |
| – | – | CC(C)C[C@H](NC(=O)[C@@H](CCCNC(=N)N)NC(=O)[C@@H]1CCCN1C(=O)[C@H](CCCCNC(=N)N)NC(=O)[C@H](CCC(N)=O)NC(=O)[C@@H](CCCNC(=N)N)NC(=O)C(C)(C)C(=O)NCCc1c[nH]cn1)C(=O)NC(C)(C)C(=O)N[C@@H](Cc1c[nH]cn1)C(=O)N[C@@H](CC1CCNCC1)C(=O)NCC(=O)N1[C@H](C(=O)N[C@@H](Cc2cccc(Cl)c2)C(=O)N2CCC[C@H]2C(=O)N[C@H](Cc2ccc(-c3ccccc3)cc2)C(=O)O)C[C@@H]2CCCC[C@@H]21 [Example 18] ({Malonyl(2,2-Me2,histaminyl)}-[dR]Q[hArg]P[dR]L[Aib]H[Ala(piperidin-4-yl)]G[Oic][Phe(3-Cl)]P[dBip]-OH) | 47.5 | 0.0794 | > 10 |
| – | – | CC(C)C[C@H](NC(=O)[C@@H](CCCNC(=N)N)NC(=O)[C@@H]1CCCN1C(=O)[C@H](CCCCNC(=N)N)NC(=O)[C@H](CCC(N)=O)NC(=O)[C@@H](CCCNC(=N)N)NC(=O)C(C)(C)C(=O)NCCc1c[nH]cn1)C(=O)NC(C)(C)C(=O)N[C@@H](Cc1c[nH]cn1)C(=O)N[C@@H](CC1CCNCC1)C(=O)NCC(=O)N1[C@H](C(=O)N[C@@H](Cc2ccc(-c3ccccc3)cc2)C(=O)N2CCC[C@H]2C(=O)N[C@H](Cc2ccc(-c3ccccc3)cc2)C(=O)O)C[C@@H]2CCCC[C@@H]21 [Example 19] ({Malonyl(2,2-Me2,histaminyl)}-[dR]Q[hArg]P[dR]L[Aib]H[Ala(piperidin-4-yl)]G[Oic][Bip]P[dBip]-OH) | 97 | 0.02 | > 10 |
| – | – | CC(C)C[C@H](NC(=O)[C@@H](CCCNC(=N)N)NC(=O)[C@@H]1CCCN1C(=O)[C@H](CCCCNC(=N)N)NC(=O)[C@H](CCC(N)=O)NC(=O)[C@@H](CCCNC(=N)N)NC(=O)C(C)(C)C(=O)NCCc1c[nH]cn1)C(=O)NC(C)(C)C(=O)N[C@@H](Cc1c[nH]cn1)C(=O)N[C@@H](CC1CCNCC1)C(=O)NCC(=O)N1[C@H](C(=O)N[C@@H](Cc2ccc3ccccc3c2)C(=O)N2CCC[C@H]2C(=O)N[C@H](Cc2ccc(-c3ccccc3)cc2)C(=O)O)C[C@@H]2CCCC[C@@H]21 [Example 20] ({Malonyl(2,2-Me2,histaminyl)}-[dR]Q[hArg]P[dR]L[Aib]H[Ala(piperidin-4-yl)]G[Oic][2Nal]P[dBip]-OH) | 84.1 | 0.0126 | > 10 |
| – | – | CC(C)C[C@H](NC(=O)[C@@H](CCCNC(=N)N)NC(=O)[C@@H]1CCCN1C(=O)[C@H](CCCCNC(=N)N)NC(=O)[C@H](CCC(N)=O)NC(=O)[C@@H](CCCNC(=N)N)NC(=O)C(C)(C)C(=O)NCCc1c[nH]cn1)C(=O)NC(C)(C)C(=O)N[C@@H](Cc1c[nH]cn1)C(=O)N[C@@H](CC1CCNCC1)C(=O)NCC(=O)N1[C@H](C(=O)N[C@@H](Cc2ccc(Br)cc2)C(=O)N2CCCC[C@H]2C(=O)N[C@H](Cc2ccc(-c3ccccc3)cc2)C(=O)O)C[C@@H]2CCCC[C@@H]21 [Example 21] ({Malonyl(2,2-Me2,histaminyl)}-[dR]Q[hArg]P[dR]L[Aib]H[Ala(piperidin-4-yl)]G[Oic][Phe(4-Br)][Pip][dBip]-OH) | 54.5 | 0.01 | > 1 |
| – | – | CC(C)C[C@H](NC(=O)[C@@H](CCCNC(=N)N)NC(=O)[C@@H]1CCCN1C(=O)[C@H](CCCCNC(=N)N)NC(=O)[C@H](CCC(N)=O)NC(=O)[C@@H](CCCNC(=N)N)NC(=O)C(C)(C)C(=O)NCCc1c[nH]cn1)C(=O)NC(C)(C)C(=O)N[C@@H](Cc1c[nH]cn1)C(=O)N[C@@H](CC1CCNCC1)C(=O)NCC(=O)N1[C@H](C(=O)N[C@@H](Cc2ccc(Br)cc2)C(=O)N2CCC[C@H]2C(=O)N[C@H](Cc2ccc(OCc3ccccc3)cc2)C(=O)O)C[C@@H]2CCCC[C@@H]21 [Example 22] ({Malonyl(2,2-Me2,histaminyl)}-[dR]Q[hArg]P[dR]L[Aib]H[Ala(piperidin-4-yl)]G[Oic][Phe(4-Br)]P[dY](Bn)-OH) | 98.1 | 0.00794 | > 10 |
| 43.4 | 0.0251 | CC(C)C[C@H](NC(=O)[C@@H](CCCNC(=N)N)NC(=O)[C@@H]1CCCN1C(=O)[C@H](CCCCNC(=N)N)NC(=O)[C@H](CCC(N)=O)NC(=O)[C@@H](CCCNC(=N)N)NC(=O)C(C)(C)C(=O)NCCc1c[nH]cn1)C(=O)NC(C)(C)C(=O)N[C@@H](Cc1c[nH]cn1)C(=O)N[C@@H](CC1CCNCC1)C(=O)NCC(=O)N1[C@H](C(=O)N[C@@H](Cc2ccc(Br)cc2)C(=O)N2CCC[C@H]2C(=O)N[C@H](Cc2ccc3ccccc3c2)C(=O)O)C[C@@H]2CCCC[C@@H]21 [Example 23] ({Malonyl(2,2-Me2,histaminyl)}-[dR]Q[hArg]P[dR]L[Aib]H[Ala(piperidin-4-yl)]G[Oic][Phe(4-Br)]P[d2Nal]-OH) | – | – | > 10 |
